Source: patent publication EP4706657A1, “COMBINATION THERAPY OF PEXIDARTINIB AND NINTEDANIB FOR PREVENTION OR TREATMENT OF PULMONARY FIBROSIS” (Korea Institute of Radiological & Medical Sciences, priority 2023, dated 2024)

Columns and labels:
[1] = tested on: radiation-induced pulmonary fibrosis; assay: Inhibitory effect on radiation-induced pulmonary fibrosis in mice (Micro-CT, H&E and Masson's Trichrome staining); type: in vivo; details: SBRT 90 Gy, 4 mm collimator, male C57BL/6 mice; each drug 60 mg/kg orally daily, starting one hour before irradiation; Micro-CT two weeks after radiation exposure; compared to untreated group
Text: Seven-week-old male C57BL/6 mice were divided into groups treated with IM-1, nintedanib, and the combination of the two drugs (IM-1 + nintedanib). One hour before stereotactic body radiation therapy (SBRT; 90 Gy, 4 mm collimator), the drugs were orally administered to the mice. The degree of pulmonary fibrosis and the inhibitory effect on radiation-induced lung injury were observed two weeks after radiation exposure. The IM-1 and nintedanib groups were each administered the respective drug daily at a dose of 60 mg/kg, and the combination group was administered both drugs daily at 60 mg/kg each. Additionally, to analyze the degree of inflammatory response and the degree of fibrosis, H&E staining and Masson's Trichrome staining were performed.

[2] = tested on: pulmonary fibrosis induced by bleomycin; assay: Inhibitory effect on pulmonary fibrosis induced by bleomycin in mice (Micro-CT, H&E and Masson's Trichrome staining, survival); type: in vivo; details: bleomycin sulfate 1.5 U/kg, male C57BL/6 mice; each drug 60 mg/kg orally once daily for two weeks starting 14 days after bleomycin; Micro-CT 4 weeks after bleomycin; compared to untreated group
Procedure: Each drug was administered starting 14 days after the administration of bleomycin. The control drugs, nintedanib and pexidartinib (IM-1), were both administered at a dose of 60 mg/kg, and the co-administration group was orally administered nintedanib (60 mg/kg) with IM-1 (60 mg/kg) once daily for two weeks (a total of 13 administrations). Additionally, to analyze the degree of inflammatory response and the degree of fibrosis, H&E staining and Masson's Trichrome staining were performed. In addition, the mouse survival rate was compared in FIG. 3.

Compound | degree of fibrosis [1] | degree of fibrosis [2]
FC(F)(F)c1ccc(CNc2ccc(Cc3c[nH]c4ncc(Cl)cc34)cn2)cn1 [IM-1, 5-((5-chloro-1H-pyrrolo[2,3-b]pyridin-3-yl)methyl)-N-((6-(trifluoromethyl)pyridin-3-yl)methyl)pyridin-2-amine] | a reduction in the degree of fibrosis | a reduction in the degree of fibrosis
COC(=O)c1ccc2c(c1)NC(=O)/C2=C(\Nc1ccc(N(C)C(=O)CN2CCN(C)CC2)cc1)c1ccccc1 [nintedanib, methyl (3Z)-3-{[(4-{methyl[(4-methylpiperazin-1-yl)acetyl]amino}phenyl)amino](phenyl)methylidene}-2-oxo-2,3-dihydro-1H-indole-6-carboxylate] | a reduction in the degree of fibrosis | a reduction in the degree of fibrosis
